Activity calls are given as the source filed them. The calls are words filed in the database; no cut-off is given here.
Columns and labels:
[1] = system: HCT-116; assay: Antiproliferative activity against human HCT-116 cells assessed as inhibition of cell growth incubated for 48 hrs by CCK-8 assay; type: functional, cell-based; conditions: HCT-116, 48 h
[2] = system: HT-1080; assay: Antiproliferative activity against human HT-1080 cells assessed as inhibition of cell growth incubated for 48 hrs by CCK-8 assay; type: functional, cell-based; conditions: HT-1080, 48 h
[3] = system: LoVo; assay: Antiproliferative activity against human LoVo cells assessed as inhibition of cell growth incubated for 48 hrs by CCK-8 assay; type: functional, cell-based
[4] = system: HCT-116; assay: Antiproliferative activity against human HCT-116 cells assessed as inhibition of cell proliferation incubated for 1 day by CCK-8 assay; type: functional, cell-based; conditions: HCT-116, 24 h
[5] = system: HCT-116; assay: Antiproliferative activity against human HCT-116 cells assessed as inhibition of cell proliferation incubated for 4 days by CCK-8 assay; type: functional, cell-based; conditions: HCT-116, 96 h
[6] = system: LoVo; assay: Antiproliferative activity against human LoVo cells assessed as inhibition of cell proliferation incubated for 1 day by CCK-8 assay; type: functional, cell-based; conditions: 24 h
[7] = system: LoVo; assay: Antiproliferative activity against human LoVo cells assessed as inhibition of cell proliferation incubated for 3 days by CCK-8 assay; type: functional, cell-based; conditions: 72 h
[8] = biological target: T1, Tubulin (Homo sapiens) (UniProt P68371+Q9H4B7+P0DPH7+P68366+Q13509+Q71U36+P04350+Q3ZCM7+P07437+P68363+Q9BQE3+Q6PEY2+Q13885+Q9BVA1+Q9BUF5); assay: Disruption of microtubule network in human MDA-MB-231 cells assessed as reduced microtubule network at 1 to 2 uM incubated for 24 hrs by DAPI staining based fluorescence microscopic analysis; type: cell-based; conditions: dose 1-2 µM
[9] = biological target: T1, Tubulin (Homo sapiens); assay: Disruption of microtubule network in human MDA-MB-231 cells assessed as atrophy fiber structure at 1 to 2 uM incubated for 24 hrs by DAPI staining based fluorescence microscopic analysis; type: cell-based; conditions: dose 1-2 µM
[10] = biological target: T1, Tubulin (Homo sapiens); assay: Disruption of microtubule network in human MDA-MB-231 cells assessed as punctate fiber structure at 1 to 2 uM incubated for 24 hrs by DAPI staining based fluorescence microscopic analysis; type: cell-based; conditions: dose 1-2 µM
[11] = system: MDA-MB-231; assay: Induction of apoptosis in human MDA-MB-231 cells assessed as increase in total apoptotic cells at 0.5 to 2 uM by annexin-V/PI double staining based flow cytometric analysis; type: functional, cell-based; conditions: dose 0.5-2 µM
[12] = system: MDA-MB-231; assay: Induction of apoptosis in human MDA-MB-231 cells assessed as increase in total apoptotic cells by annexin-V/PI double staining based flow cytometric analysis; type: functional, cell-based; conditions: dose 0.5-2 µM
[13] = system: MDA-MB-231; assay: Induction of cell cycle arrest in human MDA-MB-231 cells assessed as increased proportion of cells at S phase at 0.5 to 2 uM by flow cytometric analysis; type: functional, cell-based; conditions: dose 0.5-2 µM
[14] = system: MDA-MB-231; assay: Induction of apoptosis in human MDA-MB-231 cells assessed as pyknotic bright nuclei at 0.5 to 2 uM incubated for 24 hrs by Hoechst 33342 staining based fluorescence microscopic analysis; type: functional, cell-based; conditions: dose 0.5-2 µM
[15] = system: MDA-MB-231; assay: Induction of apoptosis in human MDA-MB-231 cells assessed as upregulation of Bax level by Western blotting analysis; type: functional, cell-based; conditions: dose 0.5-2 µM
[16] = system: MDA-MB-231; assay: Induction of apoptosis in human MDA-MB-231 cells assessed as decrease in Caspase 3 level by Western blotting analysis; type: functional, cell-based; conditions: dose 0.5-2 µM
[17] = system: MDA-MB-231; assay: Induction of apoptosis in human MDA-MB-231 cells assessed as decrease in Cyclin A level by Western blotting analysis; type: functional, cell-based; conditions: dose 0.5-2 µM
[18] = biological target: T2, Hexokinase-2 (Homo sapiens, UniProt P52789); assay: Inhibition of human HK2 transfected in Escherichia coli BL21 (DE) incubated for 10 mins
T2 sequence (P52789 whole entry): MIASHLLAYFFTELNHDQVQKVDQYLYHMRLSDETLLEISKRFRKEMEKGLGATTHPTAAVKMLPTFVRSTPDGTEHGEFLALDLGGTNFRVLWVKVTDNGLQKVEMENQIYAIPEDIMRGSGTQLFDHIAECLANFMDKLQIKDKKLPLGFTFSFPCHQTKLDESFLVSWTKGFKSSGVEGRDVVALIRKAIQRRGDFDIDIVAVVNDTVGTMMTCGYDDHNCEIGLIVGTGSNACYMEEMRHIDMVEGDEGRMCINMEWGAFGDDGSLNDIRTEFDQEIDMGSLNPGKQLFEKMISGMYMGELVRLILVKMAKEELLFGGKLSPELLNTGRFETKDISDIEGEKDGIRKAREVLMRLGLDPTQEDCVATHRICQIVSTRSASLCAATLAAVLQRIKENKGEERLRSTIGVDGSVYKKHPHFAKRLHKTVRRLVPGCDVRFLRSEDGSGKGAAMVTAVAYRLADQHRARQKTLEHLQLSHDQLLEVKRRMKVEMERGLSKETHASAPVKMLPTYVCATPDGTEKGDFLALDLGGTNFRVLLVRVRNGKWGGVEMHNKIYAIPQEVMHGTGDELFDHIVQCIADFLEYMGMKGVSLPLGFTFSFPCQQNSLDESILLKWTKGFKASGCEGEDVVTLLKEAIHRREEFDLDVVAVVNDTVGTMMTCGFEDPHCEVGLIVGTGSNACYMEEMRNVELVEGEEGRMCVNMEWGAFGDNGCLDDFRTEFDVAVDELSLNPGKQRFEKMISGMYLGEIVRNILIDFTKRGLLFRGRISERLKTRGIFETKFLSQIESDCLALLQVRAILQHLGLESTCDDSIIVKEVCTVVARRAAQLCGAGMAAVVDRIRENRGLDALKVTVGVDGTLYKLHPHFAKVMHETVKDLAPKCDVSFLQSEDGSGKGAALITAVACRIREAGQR

[19] = biological target: T3, Hexokinase-2 (Homo sapiens) (UniProt P52789); assay: Mixed inhibition of human HK2 transfected in Escherichia coli BL21 (DE) assessed as increase in Km with decrease in Vmax at 0.25 to 4 uM using glucose as substrate by Lineweaver-Burk plot analysis; conditions: dose 0.25-4 µM
T3 sequence (whole entry): T2 sequence (P52789 whole entry)

[20] = biological target: T3, Hexokinase-2 (Homo sapiens); assay: Non-competitive inhibition of human HK2 transfected in Escherichia coli BL21 (DE) assessed as constant Km with decrease in Vmax at 0.25 to 4 uM using ATP as substrate by Lineweaver-Burk plot analysis; conditions: dose 0.25-4 µM
[21] = biological target: T3, Hexokinase-2 (Homo sapiens); assay: Binding affinity to human HK2 transfected in Escherichia coli BL21 (DE) assessed as HK2 stabilization at 4 uM at 37 to 55 degreeC incubated for 10 to 30 mins by CETSA; conditions: time 10-30 min
[22] = system: Mitochondrial membrane; assay: […] in human MDA-MB-231 cells at 0.5 uM by JC-1 fluorescent probe based flow cytometric analysis (reference value: 2.56 %)
[23] = system: Mitochondrial membrane; assay: […] in human MDA-MB-231 cells at 2.0 uM by JC-1 fluorescent probe based flow cytometric analysis (reference value: 2.56 %)
[24] = system: MDA-MB-231; assay: Induction of ROS generation in human MDA-MB-231 cells assessed as increase in green fluorescence at 0.5 uM incubated for 24 hrs by DCFH-DA staining based flow cytometric analysis (reference value: 62.3 %); type: functional
[25] = system: MDA-MB-231; assay: Induction of ROS generation in human MDA-MB-231 cells assessed as increase in green fluorescence incubated for 24 hrs by DCFH-DA staining based flow cytometric analysis relative to control; type: functional, cell-based; conditions: dose 0.5-2 µM

IC50 [1]: 512 nM
IC50 [2]: 872 nM
IC50 [3]: 446 nM
IC50 [4]: 1930 nM
IC50 [5]: 299 nM
IC50 [6]: 1170 nM
IC50 [7]: 551 nM
Activity [8]: Active
Activity [9]: Active
Activity [10]: Active
IC50 [18]: 1560 nM
inhibition [19]: Active
inhibition [20]: Active
Activity [21]: Active
Activity [22]: 5.5%
Activity [23]: 32.3%
Structure (SMILES): O=C(/C=C/c1cn(S(=O)(=O)c2ccc([N+](=O)[O-])cc2)c2ccc(N3CCOCC3)cc12)c1cccnc1
Activity [11]: Time-dependent-effect
Activity [12]: Dose-dependent-effect
Activity [13]: Active
Activity [14]: Active
Activity [15]: Dose-dependent-effect
Activity [16]: Dose-dependent-effect
Activity [17]: Dose-dependent-effect
Activity [24]: 88.4%
Activity [25]: Dose-dependent-effect

— ChEMBL document CHEMBL6096661, “Synthesis, biological evaluation and mechanism study of a novel indole-pyridine chalcone derivative as antiproliferative agent against tumor cells through dual targeting tubulin and HK2” (Eur J Med Chem, 2025)
